The values that follow come from US9889135B2, “Companion diagnostic for CDK4 inhibitors” (Memorial Sloan-Kettering Cancer Center, priority 2013, dated 2018).

In data set [1] the test system is CEBPα, FABP4 and PPARγ mRNA in LS8107 and LS7785-10 cells. The data set is described as follows: adipocyte differentiation marker mRNA. Type of data set: cell-based, human. Conditions: seven days. How it is done: FIG. 11. […] Cell lines were maintained in DMEM High glucose (HG) supplemented with 10% heat-inactivated fetal bovine serum. Glioma cell lines, DKMG, SNB19, DBTRG-05MG, and […], were maintained in DMEM HG supplemented with 10% fetal bovine serum and 2 mM glutamine. The MCF7 breast cancer cell line was maintained in RPMI-1640 media supplemented with 10% fetal bovine serum and 2 mM glutamine.

The next data set relates to LS6736 cells. In words: SA-β-gal and HP1γ staining in LS6736. Type of data set: cell-based, human. Particulars: LS6736 (MDM2 amplified, CDK4 not); seven days. How it is done: Cells were plated at a concentration of 25,000 per well in a 4-well chamber slides (Lab-Tek) and treated for seven days with drug or shRNA as described above and stained for senescence-associated β-galactosidase (Cell Signaling kit #9860). Cell number was quantitated by DAPI staining and β-galactosidase staining quantitated as a proportion of total cells. Senescence associated heterochromatic foci were quantitated after cells were fixed with 4% paraformaldehyde, permeabilized with 0.1% Triton, blocked with 2% FBS, and stained with antibodies against HP1γ (1:5000 dilution, 2MOD-1G6 Millipore). Senescent cells were identified by immunofluorescence after treatment of slides with anti-mouse secondary antibodies and quantitation of focal SAHF as a percent of total cells (Leica Upright Confocal SP5 confocal microscope). Actin was marked using phalloidin staining (1:500, Invitrogen) and cells were counterstained with DAPI. Cell area was measured by with Metamorph software to calculate relative area per cell.

The test system of data set [2] is LS8107 and LS7785-1 cells. The data set is described as follows: BrdU incorporation after release into drug-free medium. Type of data set: cell-based, human. Particulars: after seven days of drug treatment. The source says:
(§1) Mean percentage standard deviation). (*p<0.05). (A) Senescence-associated β-galactosidase and (B) HP1γ staining for senescence associated heterochromatic foci (SAHF) formation was quantitated for three or more independent experiments for each cell line. (*p<0.05). Representative phase contrast micrographs of cells stained for SA-β-gal or immunofluorescence staining for HP1γ in two of the cell lines before (ctrl) and after (PD) drug treatment are shown in the insets of FIGS. 2A and 2B, respectively. (C) BrdU incorporation. Cell lines were treated with PD0332991 for seven days, and released into drug-free medium containing BrdU for the number of days indicated. Error bars represent the standard deviation of the mean calculated from three independent trials.
In general terms: Uptake of a labelled nucleoside into DNA is a usual measure of proliferation.

The test system of a further data set is LS8817 and LS0082 cells. Described as above. It is filed as cell-based, human. Conditions: after seven days of drug treatment.
From the text: as §1

For data set [3], the system named is MDM2 in LS8107 and LS7785-1 cells. The data set is described as follows: MDM2 levels by immunoblot, non-responder cells. Type of data set: cell-based, human. Conditions: non-responders LS8107 and LS7785-1; two days. Here is the method:
(A) Immunoblot. […] Tubulin was a loading control. (B) Immunoblot.
(§2) Antibodies against CDK4 (3F121), MDM2 (N-20 and SMP14), total RB (IF8), Cyclin A (H432), p16 (C20), p53 (DO-1 and Bp53-12), tubulin (C20) and FLAG (M2) were obtained from Santa Cruz Biotechnology, phospho-Rb 780 (#9307) from Cell Signalling, and ARF (3642) from Abeam, HAUSP (A300-033A) from Bethyl Laboratories. Treated cells were lysed with buffer composed of 50 mM Tris-HCl, pH7.4, 250 mM NaCl, 5 mM EDTA, 0.5% NP40, 2 mM PMSF, and supplemented with protease inhibitors. Eighty micrograms of protein were resolved by SDS-PAGE and transferred to PVDF membranes. Membranes were incubated overnight with antibodies (1:1000). […] Pre-treatment biopsies were collected within two weeks of the first dose and post-treatment biopsies collected after at last three weeks of treatment. Extracts were prepared in 50 mM Tris-HCl, pH7.4, 150 mM NaCl, 1 mM EDTA, 1% NP40, 0.25% sodium deoxycholate and supplemented with mini-protease inhibitor cocktail (Roche). Tumor response was assessed by reference radiologist by CT scan every six weeks for 36 weeks, and every 12 weeks thereafter.
A general note: Immunoblotting shows a protein as a band on a membrane.

For data set [4], the system named is WD/DDLS. Particulars: cited from earlier work.
Data set [5] deals with E2F7 in WD/DDLS cell lines. The data set is described as follows: E2F7 levels by immunoblot. Conditions: 48 hours. It is filed as cell-based, human. The source says: FIG. 24. […] Tubulin is a loading control. This experiment was repeated at least twice for each cell line.
The subject of data set [6] is seven RB-positive patient derived WD/DDLS cell lines. The data set is described as follows: cell cycle distribution, propidium iodine and flow cytometry. Type of data set: cell-based, human. Conditions: two days of treatment. Here is the method: Percentages annotated on graphs represent the mean of three or more independent experiments. Cells were stained with BrdU (20 μM for two hours) or annexin V as previously described (22, 48). […] was determined by staining with propidium iodine and FACS analyses (49).

The subject of data set [7] is LS8817 cells with enforced MDM2 expression. In words: PD0332991 response with enforced MDM2 expression. It is filed as cell-based, human. Here is the method:
(A) Immunoblot. […] Tubulin was a loading control. (B) Immunoblot. […] This experiment was carried out with three different pools of transductants multiple times (*p<0.05, **p<0.01). r^2 is calculated as the best-fit correlation.
FIG. 17. […] Cells transduced with an RFP expressing virus were used as a control.
For MDM2 and Rb expression, cells were infected with a lentivirus (pLOC, Open Biosystems) encoding either MDM2, MDM2 V75A, MDM2 I440A, MDM2 C464A, MDM2 Δ254-264, MDM2 L468A, MDM2 Δ464-471, MDM2 P476A, RB, LP-RB, PSM-RB or RFP. Transduced cells were selected for in media containing 3 μg/ml blasticidin and selection was maintained throughout the experiment.

Data set [8] relates to WD/DDLS. In words: phase II clinical trial (NCT01209598), tumor response by CT scan, RECIST. Type of data set: in vivo, human. Here is the method:
FIG. 7. […] GAPDH serves as a loading control.
as §2

Molecules are shown by their SMILES.

Consider `CC(=O)c1c(C)c2cnc(Nc3ccc(N4CCNCC4)cn3)nc2n(C2CCCC2)c1=O` [PD0332991], for which the “CEBPα, FABP4 and PPARγ mRNA, markers of differentiated adipocytes” value in data set [1] is given as “None of these markers increased”. Moreover, in the data set on LS6736 cells, the “number of SA-β-gal and SAHF (HP1γ) positive cells” value is “did not increase”. Also, the “time to return to the cell cycle after the drug was removed” value in data set [2] was ≤ 48 h. In the data set on LS8817 and LS0082 cells, the “return to the cell cycle after the drug was removed” value is recorded as “did not”. Further, the MDM2 reduction result in data set [3] was “not”. Moreover, the “patients with prolonged stable disease” value with WD/DDLS [4] (30 WD/DDLS patients) is recorded as 66%. Moreover, in the data set on WD/DDLS [4] (one patient), the “time at which one patient achieved a RECIST partial response” value is recorded as 74 weeks. For the same compound, in the data set with WD/DDLS [4] (patients), the myelosuppression result is on record as “common” and the tolerability result was “generally well-tolerated”. For the same compound, in the data set on WD/DDLS [4] (three other patients, favorable response that did not meet RECIST), the “decrease in tumor size” value is recorded as “at least 10%”. The E2F7 protein amount entry in [5] (LS8107) was “did not change”. For the same compound, the E2F7 protein entry in data set [5] (LS8817, LS0082 and LS8313) is given as “induced accumulation”. In data set [6], the cell cycle distribution entry is given as “accumulating in G0/G1”. Moreover, in [7], the “cell cycle exit (phosphorylated Rb, cyclin A, BrdU incorporation)” value is recorded as “not affected” and the p53 levels result was “still reduced”. For the same compound, in data set [7] (seven days), the SA-β-gal accumulation result is “failed to accumulate”. Also, the “patients who performed well on the drug (RECIST)” value with WD/DDLS [8] (of nine patients with pre- and post-treatment biopsies) was “five”. Besides, the tumor size decrease entry in the data set with WD/DDLS [8] (patient 1, RECIST response, as of March 2013, 125 mg daily for 21 days, seven days of rest) is reported as “greater than 60%”.
